Residues, ends and D or L forms follow the SMILES beside them. *: point of attachment. Cbz = O=C(OCc1ccccc1)*; CH2F = FC*
Experiments:
Format in all cases: cell-based, human
[1] = system: ML-2; assay: Cytokine induction, electrochemiluminescence assay of culture supernatant; settings: for Effect of caspase inhibitor on secreted IL-1β induction by Compound 1: 1000 nM Compound 1 with 1, 10, 100 μM inhibitor; for Secreted IL-1β in cell culture supernatant: 24, 48 and 72 hours, doses conferring similar caspase3/7 activation and viability loss; for Effect of second agent on Compound 1 induced IL-1β: ML-2 (FIG. 12)
Description: (§1) For cytokine assays on AML cell lines, cells were seeded at 1 million per mL, 3 mL per well of 6-well plates and allowed set overnight. The next day, cells were treated with 3 μL 1000× working stock of compounds of interest.
(§2) Human AML cell lines, HL-60 (CCL-240), KG-1 (CCL-246), ML-2 (ACC-15), MOLM-13 (ACC-554), MV-4-11 (CRL-9591), NOMO-1 (ACC-542), TF-1 (CRL-2003), THP-1 (TIB-202), and U937 (CRL-1593) were obtained from American Type Culture Collection (ATCC; Manassas, VA) or Deutsche Sammlung von Mikroorganismen and Zellkulturen (DSMZ, Germany) cell banks. Acute myeloid leukemia cell lines were maintained in RPMI-1640 (ATCC Cat No. 30-2001) containing 20% fetal bovine serum (FBS) (Corning Cat No. 35-010-CV) and maintained in humidified incubators at 5% carbon dioxide.
(§3) IL-1α (Meso Scale Disgnostics, Cat No. K151RBD), IL-1β (Meso Scale Disgnostics, Cat No. K151QPD), IL-1RA (Meso Scale Disgnostics, Cat No. K151WTD), IL-18 (Meso Scale Disgnostics, Cat No. K151VJK), TNFa (Meso Scale Disgnostics, Cat No. K151QWD), VEGF Meso Scale Disgnostics, Cat No. K151RHD) levels were measured by (Meso Scale Disgnostics assay kits following manufacturer's instructions. Measurements were made on a MESO™ SECTOR S 600 plate reader (Meso Scale Disgnostics).
(§4) Cell proliferation (CTG) and caspase 3/7 activation (IncuCyte) were analyzed using GraphPad Prism. Electrochemiluminescence data was analyzed using MSD Discovery Workbench platform.
(§5) The level of intracellular pro IL-1β and released IL-1β in eight AML cell lines and normal PBMC treated with a titration of Compound 1 over a 48 hour period was assessed. (see FIGS. 1A-1C, Table 2). Supernatant IL-1βb level was induced over 5 fold in 6 out of 8 AML cell lines and normal PBMC upon Compound 1 treatment compared to DMSO (FIGS. 1A, 1B, and 1C, Table 2).

[2] = system: MV4-11; assay: as above; settings: for Effect of caspase inhibitor on secreted IL-1β induction by Compound 1: MV411, 1000 nM Compound 1 with 10 μM inhibitor
Description: as §1, §2, §3, §4, §5

[3] = system: ML-2 cells; assay: Immunoblot analysis of target proteins; settings: 24, 48 and 72 hours, doses conferring similar caspase3/7 activation and viability loss
Description: Cells were washed in ice-cold 1×PBS twice before harvest in Cell Extraction Buffer (ThermoFisher Cat No. FNN0011) supplemented with 1× Halt Protease Inhibitor Cocktail (ThermoFisher Cat No. 78429). Whole cell extracts were collected after centrifugation at 14,000 g for 10 minutes, resolved on 4-12% Bis-Tris Novex Precast Gels (ThermoFisher Cat No. WG1403A), transferred onto a nitrocellulose membrane using the Turboblot Turbo Transfer System (Bio-Rad), and probed with the indicated primary antibodies. Bound antibodies were detected with IRDye-680 or -800 conjugated secondary antibodies using a LI-COR scanner.
Antibodies used for immunoblot: mouse anti-human GSPT-1 mAb conjugated with AL647 (clone number GSPT1-164-17G9-G6, Celgene, San Diego, CA), IL-1β (R&D Systems, Cat No. AF-201-NA), cleaved caspase 3 (Cell Signaling, Cat No. 9664S), alpha-tubulin (Cell Signaling, Cat No. 3873S), cleaved Caspase-8 (Cell Signaling, Cat No. 9748S), Caspase-1 (Cell Signaling, Cat No. 3866S), HA tag (Cell Signaling, Cat No. 3724), phosphor-eIF2a (Cell Signaling, Cat No. 9721), total eIF2a (Cell Signaling, Cat No. 9722), ATF4 (Cell Signaling, Cat No. 11815S), CHOP (Abcam, Cat No. 11419), GAPDH (Cell Signaling, Cat No. 5174), rabbit anti-mouse 800 antibody (LI-COR Biosciences), rabbit anti-mouse 680 antibody (LI-COR Biosciences), mouse anti-rabbit 680 antibody (LI-COR Biosciences), mouse anti-rabbit 800 antibody (LI-COR Biosciences)
as §5

[4] = system: MOLM-13; assay: Cytokine induction, electrochemiluminescence assay of culture supernatant; settings: for Effect of second agent on Compound 1 induced IL-1β: MOLM13 (FIG. 13)
Description: as §1, §2, §3, §4, §5

[5] = system: ML-2; assay: Caspase 8/FLICE activity colorimetric assay; settings: compounds at 1 μM, 24, 48 and 72 hours
Description: (§6) Next, tests were performed to see if caspase 8 activation alone is sufficient to mediate IL-1β induction. […] To ensure caspase 8 activity was captured at an appropriate time frame, caspase 8 activation levels at 24, 48 and 72 hours were measured (FIGS. 3C and 3D) using a caspase 8/FLICE activity colorimetric assay.

[6] = system: MV4-11; assay: Caspase 8/FLICE activity colorimetric assay; settings: compounds at 1 μM, 24, 48 and 72 hours
Description: as §6

[7] = system: ML-2; assay: Cytokine induction, electrochemiluminescence assay of culture supernatant; settings: compounds at 1 μM, 72 hours
[8] = system: MV4-11; assay: as above; settings: compounds at 1 μM, 72 hours
[9] = system: KG-1; assay: as above
Description: as §1, §2, §3, §4, §5

[10] = system: NOMO-1; assay: as above
Description: as §1, §2, §3, §4, §5

[11] = system: TF-1; assay: as above
Description: as §1, §2, §3, §4, §5

[12] = system: THP-1; assay: as above
Description: as §1, §2, §3, §4, §5

[13] = system: U937; assay: as above
Description: as §1, §2, §3, §4, §5

[14] = system: Normal Peripheral Blood Mononuclear Cells; assay: as above; settings: PBMC
Description: Normal PBMCs were purchased from AllCells (Cat No. PB006F). Primary AML BMMC in were purchased from Conversant (SKU ID: BBM1000-E1110036458110215SH) or Fidelis Research (AML55, AML57, AML73, AML74, AML76, AML79, AML80, AML81, AML84, AML95). Bone marrow from health donor was purchased from StemCell Technologies (Cat No. 70001.2).
Normal PBMCs were cultured in RPMI-1640 (ATCC Cat No. 30-2001) containing 20% fetal bovine serum (Corning Cat No. 35-010-CV). Primary AML and bone marrows were cultured in Complete Medium Cytokines 1X: StemSpam™ Serum-Free Expansion Medium (StemCell Technologies Cat No. 09650) supplemented with 50 ng/mL Stem Cell Factor (Peprotech Cat No. 300-07), 50 ng/mL recombinant Human FLT3-Ligand (Peprotech Cat No. 300-19), 20 ng/mL recombinant human-interleukin-3 (Peprotech Cat No. 200-03), […] recombinant human-interleukin-6 (Peprotech Cat No. 200-06), 1 μM StemRegenin (StemCell Technologies Cat No. 72342), penicillin/streptomycin (Invitrogen Cat No. 15140122).
as §3, §4, §5

[15] = system: eight AML cell lines and normal PBMC; assay: IL-1 family cytokine induction across the cell panel; settings: most cell lines tested (FIG. 1B: ML-2); LPS as positive control
Description: as §1, §3, §5
The maturation of IL-1β can be mediated through classical caspase-1 inflammasome pathway, or a caspase-8 dependent non-canonical inflammasome signaling (Antonopoulos et al. J Biol Chem. 2015, 290(33):20167-84; Chauhan et al. Cell Rep. 2018, 25(9):2354-2368; and Schneider et al. Cell Rep. 2017, 21(13):3846-3859). To understand if classical caspase-1 mediated inflammasome pathway was activated by Compound 1, the levels of an inflammasome marker, IL-18, were tested in response to Compound 1 (FIG. 1B, Table 1), using a known inflammasome stimulant lipopolysaccharide (LPS) as positive control.

Compound: CC(C)(C)[C@H](NC(=O)c1ccc(N)c(Cl)c1)C(=O)N1CCC[C@H]1C(=O)N[C@H](C=O)CC(=O)O [VRT043198]
- Effect of caspase inhibitor on secreted IL-1β induction by Compound 1 ([1]; ML-2): did not suppress IL-1β induction to nearly the same extent as pan- or caspase 8 inhibitors
- Effect of caspase inhibitor on secreted IL-1β induction by Compound 1 [2]: did not suppress IL-1β induction to nearly the same extent as pan- or caspase 8 inhibitors

Compound: COC(=O)C[C@H](NC(=O)[C@H](C)NC(=O)[C@@H](NC(=O)OCc1ccccc1)C(C)C)C(=O)CF [Z-VAD-FMK] (Cbz-Val-Ala-Asp(OMe)-CH2F)
- Effect of caspase inhibitor on secreted IL-1β induction by Compound 1 ([1]; ML-2): significantly blocked
- Effect of caspase inhibitor on secreted IL-1β induction by Compound 1 [2]: significantly blocked

Compound: CC[C@H](C)[C@H](NC(=O)OCc1ccccc1)C(=O)N[C@@H](CCC(=O)OC)C(=O)N[C@H](C(=O)N[C@@H](CC(=O)OC)C(=O)CF)[C@@H](C)O [Z-VAD-IETD] (Cbz-IE(OMe)TD(OMe)-CH2F)
- Effect of caspase inhibitor on secreted IL-1β induction by Compound 1 ([1]; ML-2): significantly blocked
- Effect of caspase inhibitor on secreted IL-1β induction by Compound 1 [2]: significantly blocked

Compound: CC(C)C[C@H](NC(=O)[C@H](Cc1ccccc1)NC(=O)c1cnccn1)B(O)O [bortezomib]
- IL-1β induced by ER stress / unfolded protein response inducers ([1]; ML-2): Low levels of IL-1β was induced
- Secreted IL-1β in cell culture supernatant ([1]; ML-2): not able to induce high levels
- Intracellular pro-IL-1β (immunoblot) [3]: not able to induce high levels

Compound: C[C@]12CCC(=O)C=C1CC[C@@H]1[C@@H]2[C@@H](O)C[C@@]2(C)[C@H]1CC[C@]2(O)C(=O)CO [cortisol]
- Effect of second agent on Compound 1 induced IL-1β [1]: can be suppressed
- Effect of second agent on Compound 1 induced IL-1β [4]: can be suppressed

Compound: C[C@]12CCC(=O)C=C1CC[C@@H]1[C@@H]2C(=O)C[C@@]2(C)[C@H]1CC[C@]2(O)C(=O)CO [cortisone]
- Effect of second agent on Compound 1 induced IL-1β [1]: can be suppressed
- Effect of second agent on Compound 1 induced IL-1β [4]: can be suppressed

Compound: C[C@@H]1C[C@@H]([C@H](O)CC2CC(=O)NC(=O)C2)C(=O)[C@@H](C)C1 [cycloheximide, reference compound]
- Secreted IL-1β in cell culture supernatant ([1]; ML-2): not able to induce high levels
- Intracellular pro-IL-1β (immunoblot) [3]: not able to induce high levels

Compound: COc1cccc2c1C(=O)c1c(O)c3c(c(O)c1C2=O)C[C@@](O)(C(C)=O)C[C@@H]3O[C@H]1C[C@H](N)[C@H](O)[C@H](C)O1 [daunorubicin, reference compound]
- Caspase 8 activation level [5]: higher extent of caspase 8 activation than Compound 1
- Caspase 8 activation level [6]: higher extent of caspase 8 activation than Compound 1
- Secreted IL-1β levels, panel of mechanistic compounds [7]: not able to induce secreted IL-1β as efficiently as Compound 1
- Secreted IL-1β levels, panel of mechanistic compounds [8]: not able to induce secreted IL-1β as efficiently as Compound 1

Compound: C[C@]12C=CC(=O)C=C1CC[C@@H]1[C@@H]2[C@@H](O)C[C@@]2(C)[C@H]1CC[C@]2(O)C(=O)CO [prednisolone]
- Effect of second agent on Compound 1 induced IL-1β [1]: can be suppressed
- Effect of second agent on Compound 1 induced IL-1β [4]: can be suppressed

Compound: C[C@]12C=CC(=O)C=C1CC[C@@H]1[C@@H]2C(=O)C[C@@]2(C)[C@H]1CC[C@]2(O)C(=O)CO [prednisone]
- Effect of second agent on Compound 1 induced IL-1β [1]: can be suppressed
- Effect of second agent on Compound 1 induced IL-1β [4]: can be suppressed

Compound: C/C=C(/C)C(=O)O[C@H]1C(C)=C2[C@H]([C@@H]1OC(=O)CCCCCCC)[C@@](C)(OC(C)=O)C[C@H](OC(=O)CCC)[C@@]1(O)[C@H]2OC(=O)[C@@]1(C)O [thapsigargin]
- IL-1β induced by ER stress / unfolded protein response inducers ([1]; ML-2): Low levels of IL-1β was induced
- Secreted IL-1β in cell culture supernatant ([1]; ML-2): not able to induce high levels
- Intracellular pro-IL-1β (immunoblot) [3]: not able to induce high levels

Compound: C[C@]12C=CC(=O)C=C1CC[C@H]1[C@@H]3C[C@@H](O)[C@](O)(C(=O)CO)[C@@]3(C)C[C@H](O)[C@@]12F [triamcinolone]
- Effect of second agent on Compound 1 induced IL-1β [1]: can be suppressed
- Effect of second agent on Compound 1 induced IL-1β [4]: can be suppressed

Compound: Z-YVAD
- Effect of caspase inhibitor on secreted IL-1β induction by Compound 1 ([1]; ML-2): did not suppress IL-1β induction to nearly the same extent as pan- or caspase 8 inhibitors
- Effect of caspase inhibitor on secreted IL-1β induction by Compound 1 [2]: did not suppress IL-1β induction to nearly the same extent as pan- or caspase 8 inhibitors

Compound: lipopolysaccharide [LPS, reference compound]
- IL-1β induction [9]: 17.67
- IL-18 induction [9]: 3.47
- IL-1β induction ([1]; ML-2): 8.70
- IL-18 induction ([1]; ML-2): 1.21
- IL-1β induction ([4]; MOLM-13): 0.00
- IL-1β induction ([2]; MV4-11): 65.19
- IL-18 induction ([2]; MV4-11): 24.45
- IL-1β induction [10]: 3.11
- IL-18 induction [10]: 1.77
- IL-1β induction [11]: 1.12
- IL-18 induction [11]: 1.41
- IL-1β induction [12]: 96.62
- IL-18 induction [12]: 12.13
- IL-1β induction [13]: 1.44
- IL-18 induction [13]: 1.28
- IL-1β induction [14]: 174.15
- IL-18 induction [14]: 1.88
- IL-18 levels (inflammasome marker) [15]: profound IL-18 induction at early time point (6 hrs)

From US12090147B2, “Combination therapy with 2-(4-chlorophenyl)-N-((2-(2,6-dioxopiperidin-3-yl)-1-oxoisoindolin-5-yl)methyl)-2,2-difluoroacetamide” (Celgene Corporation, priority 2019, dated 2024)
